Measured values as given in patent US8710080B2, “Prodrugs of [4 [4-(5-Aminomethyl-2-fluoro-phenyl)-piperidin-1-yl]-(1H-pyrrolo-pyridin-yl)-methanones and synthesis thereof” (Sanofi, priority 2009, dated 2014).
Where a name gives a salt, the structure may show the parent alone.

Experiments:
beta-Tryptase = molecular target: T1, beta-Tryptase (Homo sapiens, UniProt Q15661); experiment: beta-Tryptase inhibition, chromogenic enzyme assay (S2366 substrate); format: biochemical; conditions: activity of parent drug against beta-Tryptase; Ki calculated from IC50
T1 construct: host or cells: yeast cells
T1 sequence (Q15661 31-275): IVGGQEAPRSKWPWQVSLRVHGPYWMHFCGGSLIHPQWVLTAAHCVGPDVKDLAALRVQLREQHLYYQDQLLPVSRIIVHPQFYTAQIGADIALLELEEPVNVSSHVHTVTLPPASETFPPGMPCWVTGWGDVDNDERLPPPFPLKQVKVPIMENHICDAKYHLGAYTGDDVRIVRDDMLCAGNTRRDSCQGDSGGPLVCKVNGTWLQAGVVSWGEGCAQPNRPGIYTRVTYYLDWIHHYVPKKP
Text: Inhibition of this catalytic activity may be measured by the in vitro enzyme assay and the cellular assay.
Tryptase inhibition activity is confirmed using either isolated human lung tryptase or recombinant human beta tryptase expressed in yeast cells. Essentially equivalent results are obtained using isolated native enzyme or the expressed enzyme. The assay procedure employs a 96 well microplate (Costar 3590) using L-pyroglutamyl-L-prolyl-L-arginine-para-nitroanilide (S2366: Quadratech) as substrate (essentially as described by McEuen et. al. Biochem Pharm, 1996, 52, pages 331-340). Assays are performed at room temperature using 0.5 mM substrate (2×Km) and the microplate is read on a microplate reader (Beckman Biomek Plate reader) at 405 nm wavelength.
Materials and Methods for Tryptase Primary Screen (Chromogenic Assay)
S2366 (Stock solutions of 2.5 mM).
Purified recombinant beta Tryptase Stocks of 310 μg/mL. […]
The protocol is essentially the same as above except that the compound is added in duplicates at the following final concentrations: 0.01, 0.03, 0.1, 0.3, 1, 3, 10 μM (All dilutions carried out manually). […] From the IC50 value, the Ki can be calculated using the following formula: Ki=IC50/(1+[Substrate]/Km).

[1] = Rat plasma stability (incubation in rat plasma, LC-MS/MS); format: in vitro ADME; conditions: 100 ng/mL, 37° C.
Method: The rat plasma stability of Example 1 was tested by incubation of the compound in rat plasma at 100 ng/mL followed by LC-MS/MS bioanalysis to measure remaining parent compound relative to the time zero condition (no incubation). Concentrations of 1 remaining at 1 and 4 hr after incubation at 37° C. were 19% and 0%, indicating 1 was very unstable under these conditions. Since 1 was designed as a prodrug, plasma instability is a desirable attribute.

Row | Structure (SMILES) | Ki (beta-Tryptase) [nM] | Rat plasma stability (in words) [1] | Concentration remaining relative to time zero ([1]; 1 hr incubation) [%] | Concentration remaining relative to time zero ([1]; 4 hr incubation) [%]
1 | COCCn1cc(C(=O)N2CCC(c3cc(CN)ccc3F)CC2)c2c(C(=O)N3CCOCC3)cccc21 [Parent of 1, [4-(5-Aminomethyl-2-fluoro-phenyl)-piperidin-1-yl]-[1-(2-methoxy-ethyl)-4-(morpholine-4-carbonyl)-1H-indol-3-yl]-methanone hydrochloride] | 29 |  |  | 
2 | COCCn1cc(C(=O)N2CCC(c3cc(CNC(=O)CNC(=O)[C@@H](N)C(C)C)ccc3F)CC2)c2c(C(=O)N3CCOCC3)cccc21.Cl [Example 1, (S)-2-Amino-N-[(4-fluoro-3-{1-[1-(2-methoxy-ethyl)-4-(morpholine-4-carbonyl)-1H-indole-3-carbonyl]-piperidin-4-yl}-benzylcarbamoyl)-methyl]-3-methyl-butyramide hydrochloride] |  | very unstable | 19 | 0
3 | COCCn1cc(C(=O)N2CCC(c3cc(CN)ccc3F)CC2)c2c(OC(F)(F)F)ccc(F)c21 [Parent of 4, [4-(5-aminomethyl-2-fluoro-phenyl)-piperidin-1-yl]-[7-fluoro-1-(2-methoxy-ethyl)-4-trifluoromethoxy-1H-indol-3-yl]-methanone hydrochloride] | 38 |  |  | 
